“Also recorded” adds a separate entry of the source.
Tests used:
[1] = molecular target: T1, 5-HT2a recombinant receptor (Homo sapiens, UniProt P28223); experiment: Aequorin cell line functional assay; type: cell-based; details: human recombinant cell lines; FIG. 1
T1 construct: expressed in transfected cells
Procedure: (§1) Aequorin cell lines expressing the 5-HT2a, 5-HT2b and 5-HT2c non-edited (ne) recombinant receptors were used to evaluate the functional activity of eltoprazine. Aequorin cells grown 18 h prior to the test in media without antibiotics were detached by gentle flushing with PBS-EDTA (5 mM EDTA), recovered by centrifugation and resuspended in “assay buffer” (DMEM/HAM's F12 with HEPES+0.1% BSA protease free). Cells were incubated at room temperature for at least 4 h with Coelenterazine h (Molecular Probes). The reference agonist used were 5-HT and α-methyl-5-HT. For agonist testing, 50 μl of cell suspension were injected on 50 μl of test compound or reference agonist plated in a 96-well plate. The resulting emission of light was recorded using the Hamamatsu Functional Drug Screening System 6000 (FDSS 6000).

[2] = molecular target: T2, 5-HT2c non-edited (ne) recombinant receptor (Homo sapiens, UniProt P28335); experiment: Aequorin cell line functional assay; type: cell-based; details: human recombinant cell lines; FIG. 1
T2 construct: expressed in transfected cells
T2 sequence (P28335 33-458): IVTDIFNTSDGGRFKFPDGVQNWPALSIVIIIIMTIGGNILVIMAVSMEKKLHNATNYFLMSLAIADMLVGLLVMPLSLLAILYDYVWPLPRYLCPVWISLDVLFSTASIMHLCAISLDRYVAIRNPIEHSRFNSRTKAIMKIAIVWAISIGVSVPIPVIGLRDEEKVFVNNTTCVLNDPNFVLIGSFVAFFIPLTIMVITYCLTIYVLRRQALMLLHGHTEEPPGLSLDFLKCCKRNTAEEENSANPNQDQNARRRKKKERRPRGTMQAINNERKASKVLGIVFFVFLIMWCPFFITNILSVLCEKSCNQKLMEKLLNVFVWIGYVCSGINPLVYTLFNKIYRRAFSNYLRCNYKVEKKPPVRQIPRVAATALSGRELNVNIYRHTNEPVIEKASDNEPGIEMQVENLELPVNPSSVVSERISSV
Procedure: as §1

[3] = test system: unilaterally 6-OHDA-lesioned rats; experiment: Turning behaviour induced by high dose of L-DOPA in 6-OHDA-lesioned rats; type: in vivo, Sprague Dawley rats; details: 0.3, 1.25 and 5 mg/kg, 30 min before the test; FIG. 3
Procedure: Male Sprague Dawley rats (Elevage Janvier, Le Genest Saint Isle, France) weighing between 220 and 250 g at the beginning of the study are used in these experiments. They are housed under a 12 h light/dark cycle with free access to standard pelleted food and tap water. Animal treatment and experimental procedures are approved by local ethical committees (Regierungspräsidium Darmstadt; Germany).
Dopamine-denervating lesions are performed on rats anaesthetized with a 5:1 mixture of ketamine and xylazine (1 ml/kg, i.p.). […] The animals' turning behaviour is recorded in an automated rotometer (TSE Rotameter System, TSE-Systems GmbH, Bad Homburg, Germany) over a 90 min period after the intraperitoneal (i.p.) injection of 2.5 mg/kg dexamphetamine sulphate dissolved in saline. […]
In order to evaluate the effect of eltoprazine on parkinsonian symptoms and its interaction with L-DOPA, rotational behaviour is evaluated. The numbers of ipsilateral and contralateral turns are recorded in an automated rotometer (TSE Rotameter System, TSE-Systems GmbH, Bad Homburg, Germany) over a period of 180 min. […]

[4] = test system: Sprague-Dawley rats; experiment: Fear potentiated startle; type: in vivo; details: acute treatment
Procedure: (§2) For contextual fear conditioning, open field, fear potentiated startle and elevate plus maze, experimentally naive adult male Sprague-Dawley rats (250-300 g; Janvier, France) were housed in groups of four per cage. Colony room temperature and humidity were maintained respectively at 20±1° C. and 60±3%. Food and water were available ad libitum and the animals were kept under an alternating 12 h/12 h day-night cycle (lights on at 07.00) for at least 6 days before the experiments were started. All experiments were conducted during the light period of the day-night cycle. For the Vogel test, male experimentally naive Wistar rats (180-220 g, State Breeding Farm “Rappolovo”, St. Petersburg, Russia; N=109) were used. Each animal was used only once.
(§3) Eltoprazine hydrochloride was dissolved in sterile water. Administration of eltoprazine or vehicle (sterile water) was done s.c. (0.078 to 1.25 mg/kg) once, 60 minutes (30 min in the Vogel test) prior to start of the behavioural assay.

[5] = test system: Wistar rats; experiment: Shock-suppressed drinking (Vogel) test; type: in vivo; details: acute s.c., 30 min before the test; not statistically significant; FIG. 7
Procedure: as §2, §3
The apparatus consisted of 4 identical standard operant chambers with grid metal floor. Water bottle spout was protruded through the wall and connected to a shock device. […] Latency to start drinking was registered, and total drinking time and the licks number were recorded during 5 min timed from the first lick of the bottle spout. […]

[6] = molecular target: 5-HT1b receptor (Rattus norvegicus, UniProt P28564); details: Schipper et al. 1990; cited from earlier work
5-HT1b receptor, sequence (P28564 whole entry): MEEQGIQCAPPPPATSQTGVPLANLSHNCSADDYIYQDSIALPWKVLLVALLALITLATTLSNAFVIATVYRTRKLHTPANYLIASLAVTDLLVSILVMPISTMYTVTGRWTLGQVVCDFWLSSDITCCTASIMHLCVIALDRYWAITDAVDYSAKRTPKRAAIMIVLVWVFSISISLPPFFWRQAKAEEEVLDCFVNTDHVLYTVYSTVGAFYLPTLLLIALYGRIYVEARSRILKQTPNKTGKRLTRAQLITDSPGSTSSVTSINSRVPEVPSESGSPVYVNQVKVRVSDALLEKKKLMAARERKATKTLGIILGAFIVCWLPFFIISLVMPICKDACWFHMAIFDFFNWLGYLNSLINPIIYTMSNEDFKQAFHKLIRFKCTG

T1 sequence (P28223 whole entry): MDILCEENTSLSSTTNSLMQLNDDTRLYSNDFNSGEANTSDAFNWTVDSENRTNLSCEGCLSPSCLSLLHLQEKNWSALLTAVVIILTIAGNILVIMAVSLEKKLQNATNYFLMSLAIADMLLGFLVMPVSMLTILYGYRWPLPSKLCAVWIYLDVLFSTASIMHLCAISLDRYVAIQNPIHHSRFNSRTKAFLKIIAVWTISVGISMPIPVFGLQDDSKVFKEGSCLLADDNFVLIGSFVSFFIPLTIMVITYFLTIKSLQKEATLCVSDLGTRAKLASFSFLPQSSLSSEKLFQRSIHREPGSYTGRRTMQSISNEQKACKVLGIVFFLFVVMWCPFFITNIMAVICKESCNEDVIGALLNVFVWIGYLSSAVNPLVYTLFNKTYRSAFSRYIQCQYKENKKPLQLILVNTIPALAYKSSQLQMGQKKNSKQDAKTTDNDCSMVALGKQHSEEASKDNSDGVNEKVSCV

For `c1cc2c(c(N3CCNCC3)c1)OCCO2` [eltoprazine, 1-(2,3-dihydro-1,4-benzodioxin-5-yl)piperazine], the “functional activity at 5-HT2a receptor” value [1] was “full agonist”, the “functional activity at 5-HT2c receptor” value [2] was “full agonist” and the “interference with the antiparkinsonian effect of L-DOPA (turning behaviour)” value [3] was “does not interfere”. For the same compound, the “effect in fear potentiated startle, first experiment” value [4] was “anxiolytic-like effect”, the “effect in fear potentiated startle, repetition study” value ([4]; same doses) was “strong trend” and the “number of accepted punishments (shocks received) in the Vogel test” value [5] was “tendency to increase; also recorded: trend for anxiolytic activity”. The “effect on 5-HT1b receptor” value [6] was “agonistic effect”.

From patent publication US20120136005A1, “E[…] THE TREATMENT OF ANXIETY” (MERZ PHARMA GmbH & CO. KGaA, priority 2009, published 2012)
